Laboratory results taken from PMC9329436, “Optimization of the 4-anilinoquin(az)oline scaffold as epidermal growth factor receptor (EGFR) inhibitors for chordoma utilizing a toxicology profiling assay platform” (Scientific Reports, 2022).
Read-outs that look alike come from different tables or passages of the source.

Tests used:
Assay type in all cases: biochemical
[1] = biological target: 320 wild-type protein kinases (Homo sapiens, UniProt P37023); conditions: singlicate
Description: (§1) Table S4. Profiling of two compounds at two concentrations against 320 wild-type protein kinases; singlicate measurement; Residual activities (% of control).

[2] = biological target: 320 wild-type protein kinases (Homo sapiens, UniProt Q16584); conditions: singlicate
Description: as §1

[3] = biological target: 320 wild-type protein kinases (Homo sapiens, UniProt Q9BWU1); conditions: CDK19/CycC, singlicate
Description: as §1

[4] = biological target: 320 wild-type protein kinases (Homo sapiens, UniProt Q9H3Y6); conditions: kinase SRMS, singlicate
Description: as §1

[5] = biological target: 320 wild-type protein kinases (Homo sapiens, UniProt P17948); conditions: kinase VEGF-R1, singlicate
Description: as §1

[6] = biological target: 320 wild-type protein kinases (Homo sapiens, UniProt P51812); conditions: kinase RPS6KA3, singlicate
Description: as §1

[7] = biological target: 320 wild-type protein kinases (Homo sapiens, UniProt P07949); conditions: kinase RET, singlicate
Description: as §1

[8] = biological target: T1, 320 wild-type protein kinases (Homo sapiens, UniProt O43781); conditions: singlicate
T1 sequence (O43781 1-588): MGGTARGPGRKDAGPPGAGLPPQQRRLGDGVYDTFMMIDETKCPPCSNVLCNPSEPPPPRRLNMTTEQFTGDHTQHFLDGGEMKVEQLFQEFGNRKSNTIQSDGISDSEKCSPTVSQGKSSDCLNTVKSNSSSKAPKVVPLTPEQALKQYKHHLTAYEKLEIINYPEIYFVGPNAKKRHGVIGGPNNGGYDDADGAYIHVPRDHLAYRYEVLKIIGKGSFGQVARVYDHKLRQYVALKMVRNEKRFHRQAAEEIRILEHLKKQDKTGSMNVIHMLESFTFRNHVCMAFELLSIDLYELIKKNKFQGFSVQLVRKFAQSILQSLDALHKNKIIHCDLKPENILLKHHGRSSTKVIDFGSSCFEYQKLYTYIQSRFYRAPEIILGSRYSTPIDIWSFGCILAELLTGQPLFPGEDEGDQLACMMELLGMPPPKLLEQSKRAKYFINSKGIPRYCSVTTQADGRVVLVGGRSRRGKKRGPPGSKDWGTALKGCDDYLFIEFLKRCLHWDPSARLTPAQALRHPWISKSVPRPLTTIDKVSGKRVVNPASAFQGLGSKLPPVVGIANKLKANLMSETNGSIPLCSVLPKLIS
Description: as §1

[9] = biological target: T2, 320 wild-type protein kinases (Homo sapiens, UniProt P42681); conditions: kinase TXK, singlicate
T2 sequence (P42681 1-527): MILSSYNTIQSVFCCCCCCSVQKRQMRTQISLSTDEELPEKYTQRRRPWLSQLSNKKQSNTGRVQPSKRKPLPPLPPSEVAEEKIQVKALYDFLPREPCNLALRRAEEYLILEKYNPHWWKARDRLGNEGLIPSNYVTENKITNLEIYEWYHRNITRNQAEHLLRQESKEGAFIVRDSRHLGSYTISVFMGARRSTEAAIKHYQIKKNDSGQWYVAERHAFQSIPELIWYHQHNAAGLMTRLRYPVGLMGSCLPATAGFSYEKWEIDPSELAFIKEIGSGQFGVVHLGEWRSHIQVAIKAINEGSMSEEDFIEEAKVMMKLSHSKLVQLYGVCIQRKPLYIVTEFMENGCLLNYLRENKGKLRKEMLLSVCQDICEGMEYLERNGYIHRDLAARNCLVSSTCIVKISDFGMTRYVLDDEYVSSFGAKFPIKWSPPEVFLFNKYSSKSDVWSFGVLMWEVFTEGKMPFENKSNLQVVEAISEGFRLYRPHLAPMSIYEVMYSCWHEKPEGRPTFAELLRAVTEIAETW
Description: as §1

[10] = biological target: 320 wild-type protein kinases (Homo sapiens, UniProt P16591); conditions: FER, singlicate
Description: as §1

320 wild-type protein kinases (Homo sapiens, UniProt Q16584), sequence (Q16584 whole entry): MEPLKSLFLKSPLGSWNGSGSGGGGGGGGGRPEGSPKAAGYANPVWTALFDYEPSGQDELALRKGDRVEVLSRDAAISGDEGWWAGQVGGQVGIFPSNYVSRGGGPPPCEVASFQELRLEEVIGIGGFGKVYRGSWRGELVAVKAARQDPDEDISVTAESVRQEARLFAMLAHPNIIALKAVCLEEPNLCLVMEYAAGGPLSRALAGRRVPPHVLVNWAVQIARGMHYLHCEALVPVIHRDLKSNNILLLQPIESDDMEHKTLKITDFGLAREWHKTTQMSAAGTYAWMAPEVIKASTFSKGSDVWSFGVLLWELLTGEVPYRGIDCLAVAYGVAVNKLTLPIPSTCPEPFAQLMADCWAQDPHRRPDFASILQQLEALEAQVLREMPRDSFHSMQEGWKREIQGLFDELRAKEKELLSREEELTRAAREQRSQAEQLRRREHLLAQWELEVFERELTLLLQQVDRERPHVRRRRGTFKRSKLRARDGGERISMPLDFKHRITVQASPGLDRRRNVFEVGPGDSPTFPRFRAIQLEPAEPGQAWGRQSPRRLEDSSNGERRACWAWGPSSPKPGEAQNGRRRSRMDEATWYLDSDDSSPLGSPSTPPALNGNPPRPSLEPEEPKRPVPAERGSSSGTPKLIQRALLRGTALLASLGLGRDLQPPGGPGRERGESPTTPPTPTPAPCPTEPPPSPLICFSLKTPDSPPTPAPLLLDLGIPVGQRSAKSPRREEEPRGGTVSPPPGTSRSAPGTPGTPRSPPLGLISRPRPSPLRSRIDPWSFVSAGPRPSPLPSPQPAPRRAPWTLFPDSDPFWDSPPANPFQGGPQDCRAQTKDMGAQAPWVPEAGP
320 wild-type protein kinases (Homo sapiens, UniProt Q9H3Y6), sequence (Q9H3Y6 whole entry): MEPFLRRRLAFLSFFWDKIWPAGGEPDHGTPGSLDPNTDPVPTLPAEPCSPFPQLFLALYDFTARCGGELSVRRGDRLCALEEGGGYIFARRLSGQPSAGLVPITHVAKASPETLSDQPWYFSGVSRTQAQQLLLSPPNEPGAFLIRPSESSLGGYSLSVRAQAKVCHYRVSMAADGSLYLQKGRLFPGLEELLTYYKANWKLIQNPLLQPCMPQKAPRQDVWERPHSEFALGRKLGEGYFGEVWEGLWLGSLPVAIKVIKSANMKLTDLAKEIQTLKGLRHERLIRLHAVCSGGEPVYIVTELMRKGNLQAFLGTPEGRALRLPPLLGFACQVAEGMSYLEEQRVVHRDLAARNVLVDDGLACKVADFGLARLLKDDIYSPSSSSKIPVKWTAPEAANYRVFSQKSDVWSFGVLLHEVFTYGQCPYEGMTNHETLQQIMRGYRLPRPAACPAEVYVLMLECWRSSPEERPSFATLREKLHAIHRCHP
320 wild-type protein kinases (Homo sapiens, UniProt P17948), sequence (P17948 27-1338): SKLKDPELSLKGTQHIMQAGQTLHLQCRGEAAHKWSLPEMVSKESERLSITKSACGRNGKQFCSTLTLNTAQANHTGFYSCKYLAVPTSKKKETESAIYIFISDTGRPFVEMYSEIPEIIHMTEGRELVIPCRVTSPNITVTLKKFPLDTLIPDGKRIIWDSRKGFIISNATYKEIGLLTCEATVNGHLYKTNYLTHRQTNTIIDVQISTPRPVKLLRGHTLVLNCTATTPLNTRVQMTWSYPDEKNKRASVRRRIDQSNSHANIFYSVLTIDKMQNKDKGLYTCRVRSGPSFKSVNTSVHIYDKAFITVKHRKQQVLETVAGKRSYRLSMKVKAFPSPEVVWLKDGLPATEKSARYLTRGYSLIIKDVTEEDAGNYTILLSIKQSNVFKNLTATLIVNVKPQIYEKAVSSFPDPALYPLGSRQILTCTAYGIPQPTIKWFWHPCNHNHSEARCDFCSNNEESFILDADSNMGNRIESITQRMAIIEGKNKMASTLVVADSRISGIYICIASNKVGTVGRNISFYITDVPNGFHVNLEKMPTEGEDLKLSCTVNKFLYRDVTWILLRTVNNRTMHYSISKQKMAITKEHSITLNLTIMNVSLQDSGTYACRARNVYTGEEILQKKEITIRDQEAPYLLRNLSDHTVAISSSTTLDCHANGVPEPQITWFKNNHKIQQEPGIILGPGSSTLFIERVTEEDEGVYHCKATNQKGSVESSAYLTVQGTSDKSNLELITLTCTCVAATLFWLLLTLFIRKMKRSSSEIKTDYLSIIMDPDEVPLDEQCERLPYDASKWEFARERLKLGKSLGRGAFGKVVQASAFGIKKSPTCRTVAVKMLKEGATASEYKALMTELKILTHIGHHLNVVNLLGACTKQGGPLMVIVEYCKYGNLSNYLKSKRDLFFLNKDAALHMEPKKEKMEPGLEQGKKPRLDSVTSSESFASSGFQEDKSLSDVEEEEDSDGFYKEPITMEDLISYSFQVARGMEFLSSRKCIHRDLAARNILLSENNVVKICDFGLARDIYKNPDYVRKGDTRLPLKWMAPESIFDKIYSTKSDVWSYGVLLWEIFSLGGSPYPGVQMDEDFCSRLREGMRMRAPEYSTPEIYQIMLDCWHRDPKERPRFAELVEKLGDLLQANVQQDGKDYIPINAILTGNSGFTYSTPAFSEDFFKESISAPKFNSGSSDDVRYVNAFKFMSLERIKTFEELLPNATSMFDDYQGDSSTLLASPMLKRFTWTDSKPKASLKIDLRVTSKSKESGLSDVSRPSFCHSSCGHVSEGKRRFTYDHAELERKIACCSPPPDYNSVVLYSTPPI
320 wild-type protein kinases (Homo sapiens, UniProt P16591), sequence (P16591 whole entry): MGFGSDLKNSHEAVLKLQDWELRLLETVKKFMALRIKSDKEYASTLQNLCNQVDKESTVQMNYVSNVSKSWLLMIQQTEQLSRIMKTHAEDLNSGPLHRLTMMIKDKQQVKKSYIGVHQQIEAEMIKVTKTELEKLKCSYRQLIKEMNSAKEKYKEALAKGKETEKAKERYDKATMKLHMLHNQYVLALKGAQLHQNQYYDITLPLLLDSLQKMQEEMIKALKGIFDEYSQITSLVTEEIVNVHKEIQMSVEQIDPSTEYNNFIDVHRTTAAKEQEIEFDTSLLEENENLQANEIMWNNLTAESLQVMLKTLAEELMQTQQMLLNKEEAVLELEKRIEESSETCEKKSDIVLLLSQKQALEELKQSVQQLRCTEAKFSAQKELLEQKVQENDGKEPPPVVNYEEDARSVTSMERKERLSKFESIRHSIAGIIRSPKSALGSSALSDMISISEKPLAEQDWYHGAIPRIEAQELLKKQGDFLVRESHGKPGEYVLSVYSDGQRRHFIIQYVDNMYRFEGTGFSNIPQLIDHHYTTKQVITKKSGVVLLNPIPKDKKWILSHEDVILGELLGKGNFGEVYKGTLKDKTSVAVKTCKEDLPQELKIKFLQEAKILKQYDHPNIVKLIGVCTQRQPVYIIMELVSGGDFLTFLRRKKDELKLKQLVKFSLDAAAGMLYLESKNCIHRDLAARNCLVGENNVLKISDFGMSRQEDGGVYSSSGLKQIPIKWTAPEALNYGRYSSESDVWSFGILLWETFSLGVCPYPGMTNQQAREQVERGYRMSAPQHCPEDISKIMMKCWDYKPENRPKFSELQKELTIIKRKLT
320 wild-type protein kinases (Homo sapiens, UniProt Q9BWU1), sequence (Q9BWU1 whole entry): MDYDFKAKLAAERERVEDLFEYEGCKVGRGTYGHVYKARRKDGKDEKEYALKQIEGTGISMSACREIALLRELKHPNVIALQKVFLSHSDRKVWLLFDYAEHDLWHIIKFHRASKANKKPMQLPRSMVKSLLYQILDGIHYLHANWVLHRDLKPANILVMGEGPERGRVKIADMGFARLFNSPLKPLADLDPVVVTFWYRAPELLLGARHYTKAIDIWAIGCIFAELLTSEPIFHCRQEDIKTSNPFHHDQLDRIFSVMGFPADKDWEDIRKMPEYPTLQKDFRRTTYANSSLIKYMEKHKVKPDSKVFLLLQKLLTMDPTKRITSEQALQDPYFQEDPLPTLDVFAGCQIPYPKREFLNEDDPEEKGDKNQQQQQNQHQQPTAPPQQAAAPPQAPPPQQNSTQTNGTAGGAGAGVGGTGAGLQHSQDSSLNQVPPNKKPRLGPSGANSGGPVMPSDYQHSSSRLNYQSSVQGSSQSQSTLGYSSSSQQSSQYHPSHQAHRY
320 wild-type protein kinases (Homo sapiens, UniProt P07949), sequence (P07949 29-1114): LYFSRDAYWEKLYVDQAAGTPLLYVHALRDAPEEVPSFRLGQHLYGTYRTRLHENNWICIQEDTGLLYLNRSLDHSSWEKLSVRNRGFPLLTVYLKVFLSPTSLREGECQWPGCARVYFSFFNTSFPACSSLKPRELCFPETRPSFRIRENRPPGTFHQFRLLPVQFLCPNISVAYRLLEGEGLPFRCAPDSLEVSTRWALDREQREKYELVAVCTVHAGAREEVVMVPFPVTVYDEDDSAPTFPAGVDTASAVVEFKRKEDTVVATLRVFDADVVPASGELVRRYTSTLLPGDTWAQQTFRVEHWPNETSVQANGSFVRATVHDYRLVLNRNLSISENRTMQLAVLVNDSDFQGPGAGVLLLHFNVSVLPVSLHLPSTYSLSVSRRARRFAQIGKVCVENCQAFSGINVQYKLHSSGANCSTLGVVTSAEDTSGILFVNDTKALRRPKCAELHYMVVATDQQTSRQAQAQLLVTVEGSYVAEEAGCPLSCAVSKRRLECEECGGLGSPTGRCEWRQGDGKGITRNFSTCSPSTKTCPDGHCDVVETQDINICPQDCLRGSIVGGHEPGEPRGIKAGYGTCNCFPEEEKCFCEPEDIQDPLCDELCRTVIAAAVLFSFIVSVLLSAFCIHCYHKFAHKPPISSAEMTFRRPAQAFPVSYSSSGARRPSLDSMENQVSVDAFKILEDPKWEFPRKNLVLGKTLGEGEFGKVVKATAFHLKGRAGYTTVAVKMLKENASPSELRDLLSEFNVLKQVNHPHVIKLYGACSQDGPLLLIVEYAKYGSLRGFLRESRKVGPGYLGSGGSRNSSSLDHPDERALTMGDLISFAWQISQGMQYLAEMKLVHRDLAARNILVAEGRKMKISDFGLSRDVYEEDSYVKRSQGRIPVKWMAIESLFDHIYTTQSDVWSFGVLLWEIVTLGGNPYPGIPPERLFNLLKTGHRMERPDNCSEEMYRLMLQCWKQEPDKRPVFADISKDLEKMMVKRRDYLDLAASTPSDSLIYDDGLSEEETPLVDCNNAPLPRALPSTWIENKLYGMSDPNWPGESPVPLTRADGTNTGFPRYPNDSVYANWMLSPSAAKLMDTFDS

## C#Cc1cc(Nc2ncnc3cc(I)ccc23)ccc1Cl [Compound 41]
[1]; ACV-RL1, 1.0E-06 M
  Residual activity: 105 % of control
[1]; ACV-RL1, 1.0E-07 M
  Residual activity: 102 % of control
[2]; MAP3K11, 1.0E-06 M
  Residual activity: 73 % of control
[2]; MAP3K11, 1.0E-07 M
  Residual activity: 75 % of control
[3]; 1.0E-06 M
  Residual activity: 93 % of control
[3]; 1.0E-07 M
  Residual activity: 91 % of control
[4]; assay conc. 1.0E-06 M
  Residual activity, SRMS: 98 % of control
[4]; assay conc. 1.0E-07 M
  Residual activity, SRMS: 113 % of control
[5]; assay conc. 1.0E-06 M
  Residual activity, VEGF-R1: 113 % of control
[5]; assay conc. 1.0E-07 M
  Residual activity, VEGF-R1: 92 % of control
[6]; assay conc. 1.0E-06 M
  Residual activity, RPS6KA3: 96 % of control
[6]; assay conc. 1.0E-07 M
  Residual activity, RPS6KA3: 99 % of control
[7]; assay conc. 1.0E-06 M
  Residual activity, RET: 85 % of control
[7]; assay conc. 1.0E-07 M
  Residual activity, RET: 102 % of control
[8]; DYRK3, 1.0E-06 M
  Residual activity: 81 % of control
[8]; DYRK3, 1.0E-07 M
  Residual activity: 96 % of control
[9]; assay conc. 1.0E-06 M
  Residual activity, TXK: 79 % of control
[9]; assay conc. 1.0E-07 M
  Residual activity, TXK: 90 % of control
[10]; 1.0E-06 M
  Residual activity: 110 % of control
[10]; 1.0E-07 M
  Residual activity: 113 % of control

## C#Cc1cc(Nc2ncnc3cc(OC)c(OC)cc23)ccc1Cl [Compound 45]
[1]; ACV-RL1, 1.0E-06 M
  Residual activity: 106 % of control
[1]; ACV-RL1, 1.0E-07 M
  Residual activity: 110 % of control
[2]; MAP3K11, 1.0E-06 M
  Residual activity: 59 % of control
[2]; MAP3K11, 1.0E-07 M
  Residual activity: 79 % of control
[3]; 1.0E-06 M
  Residual activity: 97 % of control
[3]; 1.0E-07 M
  Residual activity: 104 % of control
[4]; assay conc. 1.0E-06 M
  Residual activity, SRMS: 103 % of control
[4]; assay conc. 1.0E-07 M
  Residual activity, SRMS: 124 % of control
[5]; assay conc. 1.0E-06 M
  Residual activity, VEGF-R1: 85 % of control
[5]; assay conc. 1.0E-07 M
  Residual activity, VEGF-R1: 119 % of control
[6]; assay conc. 1.0E-06 M
  Residual activity, RPS6KA3: 115 % of control
[6]; assay conc. 1.0E-07 M
  Residual activity, RPS6KA3: 119 % of control
[7]; assay conc. 1.0E-06 M
  Residual activity, RET: 51 % of control
[7]; assay conc. 1.0E-07 M
  Residual activity, RET: 101 % of control
[8]; DYRK3, 1.0E-06 M
  Residual activity: 69 % of control
[8]; DYRK3, 1.0E-07 M
  Residual activity: 97 % of control
[9]; assay conc. 1.0E-06 M
  Residual activity, TXK: 52 % of control
[9]; assay conc. 1.0E-07 M
  Residual activity, TXK: 91 % of control
[10]; 1.0E-06 M
  Residual activity: 93 % of control
[10]; 1.0E-07 M
  Residual activity: 115 % of control
